From patent EP0107907A2, “Improvements in or relating to immunomodulating agents” (ELI LILLY AND COMPANY, priority 1982, dated 1984)
Marks after values point to notes of the source that are not given here.

Key:
Electrometric titration = format: physicochemical; settings: 66% aqueous dimethylformamide; the glycyl amino group
Solubility = format: physicochemical
Description: A53868 factor A is soluble in water and dimethyl sulfoxide and is insoluble in most organic solvents.
Soluhility: soluble in water and dimethyl sulfoxide; insoluble in most organic solvents

murine macrophages = assay: In vitro activation of murine macrophages (macrophage-mediated tumor cytotoxicity against P815 cells); format: cell-based; settings: 48 hours
Experimental: In one procedure, the ability of the compounds to activate murine macrophages in vitro was determined. Peritoneal macrophages were exposed to a compound of formula 1, 2, or 3 simultaneously with the addition of target cells. Tumor cytotoxicity of these treated macrophages was determined 48 hours later by trypan blue enumeration. The percentage of growth inhibition of P815 cells due to composition-mediated macrophage activation was calculated by comparison to that of P815 cells grown in the.presence of macrophages exposed to buffer.

[1] = test system: Listeria monocytogenes EGD; assay: Protection of mice by pretreatment against lethal Listeria monocytogenes infection; format: in vivo, CD1 mice; settings: for Average Survival Time: survivors at 14 days given 15 day survival time;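 on Percent Survivors: survivors counted daily for 14 days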
Experimental: In the test CD1 mice weighing 18-20 g were pretreated parenterally with the test compound 5, 3, and 1 days before intravenous infection in the lateral tail vein with 0.1 ml containing 5 x 10^5 viable cells of Listeria monocytogenes EGD. Test compound was solubilized in pyrogen-free water and administered intraperitoneally in 0.25 ml of the solution. Ten mice each were used for each concentration tested. Ten control mice were treated intraperitoneally at 5, 3, and 1-days preinfection with 0.25 ml of pyrogen-free water. The mice were caged, watered, and fed daily. […] All surviving animals at 14 days were given an arbitrary 15 day survival time. The average survival time was calculated for each group. Significant differences between the treated and control groups of mice were determined by the standard "T" test.

C. albicans A26 = assay: Standard agar-diffusion test, antifungal; format: cell-based
Experimental: (§1) In this test CD1 mice weighing 18-20 g were pretreated intraperitoneally or subcutaneously with test compound at 5, 3, and 1 days before intravenous infection with 5 x 10^6 viable cells of Candida albicans A26. Test compound was solubilized in pyrogen-free water and administered in 0.25 ml of solution. Ten mice were used for each concentration tested. Ten infected mice were treated intraperitoneally or subcutaneously at 5, 3, and 1 days preinfection with 0.25 ml of pyrogen-free water as controls. The immunomodulatory effects of the test compound were studied in X-irradiated mice exposed to 400R 24 hours preinfection, or mice treated intraperitoneally with 50 mg/kg cyclophosphamide 5, 3, and 1 days preinfection. The mice were caged, watered, and fed daily. The number of surviving mice was counted daily. Normal mice surviving 18 days post-infection were given an arbitrary 19-day survival time. X-irradiated or cyclophosphamide-treated mice surviving 12 days post-infection were given an arbitrary 13 day survival time. The average survival time was calculated for each group. Significant differences between treated and untreated groups of mice were determined by "T" test. Compound 1 was devoid of intrinsic in vitro antifungal activity against C. albicans A26 in a standard agar-diffusion test.

Candida albicans A26 = assay: Protection of mice by pretreatment against lethal Candida albicans infection; format: in vivo, CD1 mice
Experimental: as §1

[2] = Cyclophosphamide-Pretreated Mice, dose 25 mg/kg
[3] = Cyclophosphamide-Pretreated Mice, dose 50 mg/kg

C=C(CP(=O)(O)O)NC(=O)[C@H](CC(C)C)NC(=O)CN [Compound 1, N^2-glycyl-N-(1-methylene-2-phosphonoethyl)leucinamide]
pKa (Electrometric titration): 8.2
solubility in most organic solvents (Solubility; most organic solvents): insoluble
solubility in water and dimethyl sulfoxide (Solubility; water and dimethyl sulfoxide): soluble
Percent Macrophage Cytotoxicity (murine macrophages; 1.56 µg/ml, Experiment 2): 0%
Percent Macrophage Cytotoxicity (murine macrophages; 3.12 µg/ml, Experiment 1): 11%
Percent Macrophage Cytotoxicity (murine macrophages; 3.12 µg/ml, Experiment 2): 14%
Percent Macrophage Cytotoxicity (murine macrophages; 6.25 µg/ml, Experiment 1): 0%
Percent Macrophage Cytotoxicity (murine macrophages; 6.25 µg/ml, Experiment 2): 0%
Percent Macrophage Cytotoxicity (murine macrophages; 12.5 µg/ml, Experiment 1): 27%
Percent Macrophage Cytotoxicity (murine macrophages; 12.5 µg/ml, Experiment 2): 39%
Percent Macrophage Cytotoxicity (murine macrophages; 25 µg/ml, Experiment 1): 43%
Percent Macrophage Cytotoxicity (murine macrophages; 25 µg/ml, Experiment 2): 32%
Percent Macrophage Cytotoxicity (murine macrophages; 50 µg/ml, Experiment 1): 35%
Percent Macrophage Cytotoxicity (murine macrophages; 50 µg/ml, Experiment 2): 29%
Percent Macrophage Cytotoxicity (murine macrophages; 100 µg/ml, Experiment 1): 53%
Percent Survivors ([1]; pretreatment 6.25 mg/kg i.p., day 1 post infection): 100%
Percent Survivors ([1]; pretreatment 6.25 mg/kg i.p., day 2 post infection): 100%
Percent Survivors ([1]; pretreatment 6.25 mg/kg i.p., day 3 post infection): 100%
Percent Survivors ([1]; pretreatment 6.25 mg/kg i.p., day 4 post infection): 60%
Percent Survivors ([1]; pretreatment 6.25 mg/kg i.p., day 5 post infection): 50%
Percent Survivors ([1]; pretreatment 6.25 mg/kg i.p., day 6 post infection): 40%
Percent Survivors ([1]; pretreatment 6.25 mg/kg i.p., day 7 post infection): 30%
Percent Survivors ([1]; pretreatment 6.25 mg/kg i.p., day 8 post infection): 30%
Percent Survivors ([1]; pretreatment 6.25 mg/kg i.p., day 9 post infection): 30%
Percent Survivors ([1]; pretreatment 6.25 mg/kg i.p., day 10 post infection): 30%
Percent Survivors ([1]; pretreatment 6.25 mg/kg i.p., day 11 post infection): 30%
Percent Survivors ([1]; pretreatment 6.25 mg/kg i.p., day 12 post infection): 30%
Percent Survivors ([1]; pretreatment 6.25 mg/kg i.p., day 13 post infection): 30%
Percent Survivors ([1]; pretreatment 6.25 mg/kg i.p., day 14 post infection): 30%
Average Survival Time ([1]; pretreatment 6.25 mg/kg i.p.): 7.9* Days
Percent Survivors ([1]; pretreatment 12.5 mg/kg i.p., day 1 post infection): 100%
Percent Survivors ([1]; pretreatment 12.5 mg/kg i.p., day 2 post infection): 100%
Percent Survivors ([1]; pretreatment 12.5 mg/kg i.p., day 3 post infection): 100%
Percent Survivors ([1]; pretreatment 12.5 mg/kg i.p., day 4 post infection): 80%
Percent Survivors ([1]; pretreatment 12.5 mg/kg i.p., day 5 post infection): 80%
Percent Survivors ([1]; pretreatment 12.5 mg/kg i.p., day 6 post infection): 70%
Percent Survivors ([1]; pretreatment 12.5 mg/kg i.p., day 7 post infection): 70%
Percent Survivors ([1]; pretreatment 12.5 mg/kg i.p., day 8 post infection): 70%
Percent Survivors ([1]; pretreatment 12.5 mg/kg i.p., day 9 post infection): 70%
Percent Survivors ([1]; pretreatment 12.5 mg/kg i.p., day 10 post infection): 70%
Percent Survivors ([1]; pretreatment 12.5 mg/kg i.p., day 11 post infection): 70%
Percent Survivors ([1]; pretreatment 12.5 mg/kg i.p., day 12 post infection): 70%
Percent Survivors ([1]; pretreatment 12.5 mg/kg i.p., day 13 post infection): 70%
Percent Survivors ([1]; pretreatment 12.5 mg/kg i.p., day 14 post infection): 70%
Percent Survivors ([1]; pretreatment 12.5 mg/kg i.p., day 15 post infection): 70%
Average Survival Time ([1]; pretreatment 12.5 mg/kg i.p.): 11.9* Days
Percent Survivors ([1]; pretreatment 25 mg/kg i.p., day 1 post infection): 100%
Percent Survivors ([1]; pretreatment 25 mg/kg i.p., day 2 post infection): 100%
Percent Survivors ([1]; pretreatment 25 mg/kg i.p., day 3 post infection): 90%
Percent Survivors ([1]; pretreatment 25 mg/kg i.p., day 4 post infection): 70%
Percent Survivors ([1]; pretreatment 25 mg/kg i.p., day 5 post infection): 40%
Percent Survivors ([1]; pretreatment 25 mg/kg i.p., day 6 post infection): 40%
Percent Survivors ([1]; pretreatment 25 mg/kg i.p., day 7 post infection): 40%
Percent Survivors ([1]; pretreatment 25 mg/kg i.p., day 8 post infection): 40%
Percent Survivors ([1]; pretreatment 25 mg/kg i.p., day 9 post infection): 40%
Percent Survivors ([1]; pretreatment 25 mg/kg i.p., day 10 post infection): 40%
Percent Survivors ([1]; pretreatment 25 mg/kg i.p., day 11 post infection): 40%
Percent Survivors ([1]; pretreatment 25 mg/kg i.p., day 12 post infection): 40%
Percent Survivors ([1]; pretreatment 25 mg/kg i.p., day 13 post infection): 40%
Percent Survivors ([1]; pretreatment 25 mg/kg i.p., day 14 post infection): 40%
Percent Survivors ([1]; pretreatment 25 mg/kg i.p., day 15 post infection): 40%
Average Survival Time ([1]; pretreatment 25 mg/kg i.p.): 8.6* Days
Percent Survivors ([1]; pretreatment 50 mg/kg i.p., day 1 post infection): 100%
Percent Survivors ([1]; pretreatment 50 mg/kg i.p., day 2 post infection): 100%
Percent Survivors ([1]; pretreatment 50 mg/kg i.p., day 3 post infection): 80%
Percent Survivors ([1]; pretreatment 50 mg/kg i.p., day 4 post infection): 70%
Percent Survivors ([1]; pretreatment 50 mg/kg i.p., day 5 post infection): 40%
Percent Survivors ([1]; pretreatment 50 mg/kg i.p., day 6 post infection): 30%
Percent Survivors ([1]; pretreatment 50 mg/kg i.p., day 7 post infection): 30%
Percent Survivors ([1]; pretreatment 50 mg/kg i.p., day 8 post infection): 30%
Percent Survivors ([1]; pretreatment 50 mg/kg i.p., day 9 post infection): 30%
Percent Survivors ([1]; pretreatment 50 mg/kg i.p., day 10 post infection): 30%
Percent Survivors ([1]; pretreatment 50 mg/kg i.p., day 11 post infection): 30%
Percent Survivors ([1]; pretreatment 50 mg/kg i.p., day 12 post infection): 30%
Percent Survivors ([1]; pretreatment 50 mg/kg i.p., day 13 post infection): 30%
Percent Survivors ([1]; pretreatment 50 mg/kg i.p., day 14 post infection): 30%
Percent Survivors ([1]; pretreatment 50 mg/kg i.p., day 15 post infection): 30%
Average Survival Time ([1]; pretreatment 50 mg/kg i.p.): 7.6* Days
Percent Survivors ([1]; pretreatment 100 mg/kg i.p., day 1 post infection): 100%
Percent Survivors ([1]; pretreatment 100 mg/kg i.p., day 2 post infection): 100%
Percent Survivors ([1]; pretreatment 100 mg/kg i.p., day 3 post infection): 80%
Percent Survivors ([1]; pretreatment 100 mg/kg i.p., day 4 post infection): 50%
Percent Survivors ([1]; pretreatment 100 mg/kg i.p., day 5 post infection): 50%
Percent Survivors ([1]; pretreatment 100 mg/kg i.p., day 6 post infection): 50%
Percent Survivors ([1]; pretreatment 100 mg/kg i.p., day 7 post infection): 50%
Percent Survivors ([1]; pretreatment 100 mg/kg i.p., day 8 post infection): 50%
Percent Survivors ([1]; pretreatment 100 mg/kg i.p., day 9 post infection): 50%
Percent Survivors ([1]; pretreatment 100 mg/kg i.p., day 10 post infection): 50%
Percent Survivors ([1]; pretreatment 100 mg/kg i.p., day 11 post infection): 50%
Percent Survivors ([1]; pretreatment 100 mg/kg i.p., day 12 post infection): 50%
Percent Survivors ([1]; pretreatment 100 mg/kg i.p., day 13 post infection): 50%
Percent Survivors ([1]; pretreatment 100 mg/kg i.p., day 14 post infection): 50%
Percent Survivors ([1]; pretreatment 100 mg/kg i.p., day 15 post infection): 50%
Average Survival Time ([1]; pretreatment 100 mg/kg i.p.): 9.3* Days
protecting mice against a lethal Listeria monocytogenes EGD infection ([1]; pretreatment 5, 3, and 1 days before intravenous infection, intraperitoneally): highly effective
intrinsic in vitro antifungal activity (C. albicans A26): devoid
Average Survival Time (Candida albicans A26; [2]): 6.8 days
Percent Increase In Average Survival Time Above Untreated Controls (Candida albicans A26; [2]): 54.5* Percent
Average Survival Time (Candida albicans A26; [3]): 6.1 days
Percent Increase In Average Survival Time Above Untreated Controls (Candida albicans A26; [3]): 38.6* Percent
Average Survival Time (Candida albicans A26; Normal Mice, dose 12.5 mg/kg): 9.1 days
Percent Increase In Average Survival Time Above Untreated Controls (Candida albicans A26; Normal Mice, dose 12.5 mg/kg): 68.0* Percent
Average Survival Time (Candida albicans A26; Normal Mice, dose 50 mg/kg): 7.1 days
Percent Increase In Average Survival Time Above Untreated Controls (Candida albicans A26; Normal Mice, dose 50 mg/kg): 31.5* Percent
protecting mice from a lethal Candida albicans A26 infection (Candida albicans A26; preinfection treatments at 5, 3, and 1 days, intraperitoneally or subcutaneously): significantly effective
